The data set in a line: Phytosphingosine solubility with various cyclodextrins in aqueous solution. It is filed as physicochemical. The note with it: aqueous 2-hydroxypropyl-α-cyclodextrin solution, aqueous with cosolvent or surfactant or cyclodextrin, thermodynamic from solid; excess of pure phytosphingosine (20 g/l) incubated with 2-hydroxypropyl-α-cyclodextrin solution; quantified by LC-MS; read-out: Solubilized phytosphingosine in the supernatants. How it is done:
Phytosphingosine amounts (mg/l) measured in supernatants after incubation of an excess of pure phytosphingosine (20 g/l) with each of the three types of cyclodextrin at various concentrations.
These experiments were conducted to determine if and to what extent cyclodextrins solubilized sphingoid bases. To that end, an excess of phytosphingosine was incubated with increasing concentrations of solutions of three different types of cyclodextrin species—α-cyclodextrin, 2-hydroxypropyl-α-cyclodextrin, 2-hydroxypropyl-β-cyclodextrin. Solubilized phytosphingosine in the supernatants were quantified by liquid chromatography-mass spectrometry (LC-MS) using standards prepared in the same cyclodextrin solutions.

Each structure is given as a SMILES string.

Take `CCCCCCCCCCCCCC[C@@H](O)[C@@H](O)[C@@H](N)CO` [phytosphingosine]: the solubility was greater than 9 mg/mL.

Source of the values: patent publication US11155841B2, “Method for producing sphingoid base or sphingolipid” (AJINOMOTO CO., INC., priority 2015, dated 2021).
